34 substances from patent US12044680B2, “Peptide exchange system and method” (priority 2016, dated 2024) can be followed below.

Read-outs that look alike come from different tables or passages of the source. Ends that are not written are not given here. * marks the point of attachment. DNP = dinitrophenol (DNP) tag on lysine, O=[N+]([O-])c1ccc(*)c([N+](=O)[O-])c1; Dnp = O=[N+]([O-])c1ccc(*)c([N+](=O)[O-])c1

For test [1], the target named is T1, HLA-A*02:01 tetramers with exiting peptide ILKEKK(DNP)VHGV (Homo sapiens, UniProt P04439, D140Y/D185E/D98H/E176V/E277Q/G131W/G231S/I119V/I121R/I166T/I218V/L300P/L318F/N151K/N90K/P208A/P217A/Q86G/Q94H/R138H/R169H/T345S).
T1 construct: prepared as known in the art, for instance by deletion of the transmembrane domain and the cytoplasmic domain; made in house
Put plainly: HLA-A*02:01 peptide exchange quantitation. In kind it is binding. The conditions noted are these: entering peptide 20 μM final, 4 hours; HLA-A*02:01 tetramer. On the procedure: Peptide Exchange Procedure: 50 μL of the tetramer solution is combined with 1 μL of peptide exchange factor, such as glycyl methionine, (resulting in a final peptide exchange factor concentration of 5-20 mM) and 1 μL of the peptide solution and the resulting solution was mixed, then incubated at room temperature for four hours.
Sandwich magnetic bead immunoassay: 20 μL capture beads is pipetted into wells 1-4 on a 96-well plate. 5 μL assay buffer is pipetted into well 2. 5 μL of exchanged tetramer is pipetted into well 4. Additional exchanged tetramers may be pipetted into wells 5 and up. The plate is protected from light and shaken for 45 min at 550 rpms/min. 150 μL of assay buffer is dispensed into each well. The plate is placed on a plate magnet and the beads are permitted to sediment for at least 5 minutes.
Separately, a preparation of the FITC-conjugated anti-tag antibody is prepared at 10 μg/mL. 25 μL of the FITC-conjugated anti-tag antibody is pipetted into each well except well 1, and the plate is again protected from light and shaken for 45 min at 550 rpms/min.
150 μL of assay buffer is dispensed into each well, and the plate is placed on a plate magnet. The beads are permitted to sediment for at least 5 minutes. The beads are resuspended in sheath fluid and transferred to labeled flow cytometer tubes (referred to herein by the number of the well they are drawn from), which are then analyzed on a flow cytometer.
Flow Cytometry Analysis: Unused magnetic beads are used to set FSC (forward-scattered light) and SSC (side-scattered light) voltages and gains such that a live gate selects single beads and excludes doublets and larger clumps, see FIG. 1A. […] Tube 1 is run to perform compensation in FL1 in order to eliminate fluorochrome interference in the FITC channel, see FIG. 1C. The FL1 MFI is set to the first log decade, close to that obtained with beads only. Tube 2, which contains beads that have captured no tetramer and therefore no tagged peptide, is run to calibrate the level for 0% tagged peptide, i.e. 100% peptide exchange (see FIG. 1D). In the exemplary data provided here, the MFI is 0.287. Tube 3, which contains a solution where all tetramers display the original tagged peptide, is run to calibrate the level for 100% tagged peptide, i.e. 0% peptide exchange (see FIG. 1E). In the exemplary data provided here, the MFI is 20.4. Tubes 4 and up are run to evaluate the samples. Peptide exchanged tetramers will display various quantities of tagged peptides, depending on their binding affinities to HLA-A*02:01 molecules. Therefore, the FL1 MFI measured will be intermediary between MFI values obtained with tubes 2 and 3. See FIG. 1F, where in the exemplary data provided here, the MFI is 9.37.
(§1) Peptide exchange data were obtained after incubating peptides (20 μM final) with tetramer for 4 hours, then followed by capture with anti HLA-ABC beads and staining with an anti-DNP FITC antibody.

A further test deals with T2, HLA-A*02:01 tetramers (Homo sapiens, UniProt P04439, D140Y/D185E/D98H/E176V/E277Q/G131W/G231S/I119V/I121R/I166T/I218V/L300P/L318F/N151K/N90K/P208A/P217A/Q86G/Q94H/R138H/R169H/T345S).
T2 construct: prepared as known in the art, for instance by deletion of the transmembrane domain and the cytoplasmic domain; made in house
The test is described as follows: Comparison of exiting peptides: peptide exchange on HLA-A*02:01 tetramers against […]. The conditions noted are these: GM 10 mM; YLLEFTPPV at 10 and 1 μg/mL; compared with ILKEK(DNP)VHGV. Format: binding. As for the experimental part:
Peptide exchange was performed using two HLA-A*02:01 tetramers at 280 μg/mL made with peptides ILKEKK(DNP)VHGV (SEQ ID NO: 3) and ILKEK(DNP)VHGV (SEQ ID NO: 4). […] Tetramers were captured with beads conjugated with an anti HLA-ABC specific antibody at 10 μg/mL.

The target of test [2] is T3, HLA-A*24:02 tetramers with exiting peptide TFQRK(DNP)PAAF (Homo sapiens, UniProt P04439, D101N/D140Y/D185E/E176V/E190D/F33S/G103R/G107R/I119L/I121M/I306V/K335N/L105A/L180Q/L300P/N151K/N90K/Q86E/Q94H/R106L/R138H/R89G/T104I/T345S/V100E/W191G/Y123F).
T3 construct: prepared as known in the art, for instance by deletion of the transmembrane domain and the cytoplasmic domain; made in house
The test is described as follows: HLA-A*24:02 peptide exchange quantitation. In kind it is binding. The conditions noted are these: competing peptide 20 μM final, 4 hours; HLA-A*24:02 tetramer. As for the experimental part:
as §1

The target of a further test is T4, H-2 Kb tetramers (Mus musculus, UniProt P01901).
T4 construct: prepared as known in the art, for instance by deletion of the transmembrane domain and the cytoplasmic domain; made in house
T4 sequence (P01901 22-305 limits assumed): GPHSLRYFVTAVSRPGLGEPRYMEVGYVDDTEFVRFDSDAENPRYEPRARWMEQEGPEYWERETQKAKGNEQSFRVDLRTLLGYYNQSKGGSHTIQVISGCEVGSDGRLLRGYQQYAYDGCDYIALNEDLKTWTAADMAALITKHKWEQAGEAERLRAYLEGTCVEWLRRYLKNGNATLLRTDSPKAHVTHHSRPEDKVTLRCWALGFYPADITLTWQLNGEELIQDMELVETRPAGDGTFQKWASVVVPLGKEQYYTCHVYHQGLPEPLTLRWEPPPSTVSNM
The test is described as follows: Selection of exiting peptide: peptide exchange on H-2 Kb tetramers with competing peptides. The conditions noted are these: H-2 Kb tetramers 280 μg/mL; competing peptides 10 μg/mL. In kind it is binding, murine. As for the experimental part: Peptide exchange was performed using two H-2 Kb tetramers at 280 jig/mL that were made with peptides MTYK(DNP)FPVT (SEQ ID NO: 1) and YTVK(DNP)FALV (SEQ ID NO: 2). Exchange was performed in the presence of competing peptides at 10 μg/mL. Tetramers were captured with beads conjugated with an anti H-2 Kb specific antibody. Detection was performed with a FITC-conjugated anti-DNP antibody at 10 μg/mL. The results are depicted in FIG. 6, where the exiting peptides are labeled as follows: […]

For test [3], the target named is T5, HLA-A*02:01 Tetramers containing exiting peptide ILKEKK(DNP)VHGV (Homo sapiens, UniProt P04439, D140Y/D185E/D98H/E176V/E277Q/G131W/G231S/I119V/I121R/I166T/I218V/L300P/L318F/N151K/N90K/P208A/P217A/Q86G/Q94H/R138H/R169H/T345S).
T5 construct: prepared as known in the art, for instance by deletion of the transmembrane domain and the cytoplasmic domain; made in house
The test is described as follows: Quantified peptide exchange assay of vaccine and individual peptide. In kind it is binding. On the procedure: Quantified Peptide Exchange Assay: HLA-A*02:01 Tetramers were prepared containing exiting peptide ILKEKK(DNP)VHGV (SEQ ID NO: 3). Peptide exchange was performed against (a) the peptide prepared individually in a buffered solution or (b) in the DPX-Survivac vaccine prepared in an aqueous formulation. HLA-A*02:01 tetramer, and peptide exchange factor glycylmethionine were mixed with each peptide to be tested. Peptide exchange was then quantified by the flow cytometric sandwich immunoassay using magnetic capture beads.
Comparison of Peptide Exchange Assay to T2 HLA-A2 Shift assay: The peptide exchange assay described herein and the T2 HLA-A2 shift assay were conducted on various amounts of peptide per reaction. The results are presented in FIGS. 12D (T2 HLA-A2 shift assay) and 12E (peptide exchange assay), with the three independent repeats shown in diamonds, squares, and triangles. The T2 Shift assay provides a high degree of linearity when applied to the samples containing 10 μg/reaction to 110 μg/reaction of SurA2.M peptide.

For test [4], the target named is H-2 Kb tetramers (PE, APC or BV421) with exiting peptide TFQRK(DNP)PAAF (Mus musculus, UniProt P01901). The conditions noted are these: glycyl-methionine, 4 hours room temperature; for Exchange rate, APC: H-2 Kb APC tetramer; for Exchange rate, BV421: H-2 Kb BV421 tetramer; for Exchange rate, PE: H-2 Kb PE tetramer. As for the experimental part:
The mixtures were incubated for 4 hours at room temperature, protected from light.
20 μL of magnetic capture beads were added to wells of a v-bottom 96-well plate for each tested peptide plus wells for control samples. Each test well received 5 μL from the peptide exchange samples. The plate was shaken for 45 minutes at 550 rpm, room temperature, protected from light. After bead rinse, wells received 25 μL of 1× exiting peptide antibody. The plate was shaken for 45 minutes at 550 rpm, room temperature, protected from light. Beads were rinsed, resuspended in 1× assay buffer and run on a FC500 Flow Cytometer. Single beads were gated on FSC vs. SSC and MFI were measured on 500 events per test. Peptide exchange rate was calculated using a calibration curve generated with MFI values from controls.

As to SYVPSAEQI, in test [1], the “% peptide exchange” value is 25.0%.
With ILKEKK(Dnp)VHGV, the “Performance of the exiting peptide in peptide exchange” value on HLA-A*02:01 tetramers is given as “performs better in peptide exchange”.
RYMRWTYRF: in test [2], the “% peptide exchange” value is on record as 101.29%.
Turning to YTVK(DNP)FALV, the “Exchangeability of tetramers built with the exiting peptide” value in the test with H-2 Kb tetramers was “not possible”.
On to WMHHNMDLI, for which the “% peptide exchange” value in test [1] is recorded as 89.2%.
For ATVQGQNLK, the “% peptide exchange” value in test [1] turned out to be 27.9%.
In the case of RVRAYTYSK, the “% peptide exchange” value in test [2] stood at 10.32%.
As to RAHYNIVTF, in test [2], the “% peptide exchange” value came to 85.58%.
On the same count and under the same terms, under GYSLKLSKL stands 37.93%.
On to AVLDGLLSL, for which the “% peptide exchange” value in test [1] turned out to be 90.7%.
With RIKDFLRNL, the “% peptide exchange” value in test [1] is recorded as 34.0%.
Consider ATDALMTGY, for which, in test [2], the “% peptide exchange” value was 7.74%.
On to IRLRPGGKK, for which, in test [1], the “% peptide exchange” value was found to be 25.0%.
Regarding AMAPRTLLL, the “% peptide exchange” value in test [2] turned out to be 81.62%.
On to CSLWNGPHL, for which the “% peptide exchange” value in test [1] is recorded as 55.2%.
Regarding MTYK(DNP)FPVT, the “Exchangeability of tetramers built with the exiting peptide” value with H-2 Kb tetramers is listed as “allowed exchange with a wide range of peptides”.
As for YLLEFTPPV, the “% peptide exchange” value in test [1] turned out to be 91.9%.
For the substance IMQIMPYGC, the “% peptide exchange” value in test [1] is 59.9%.
Turning to LTLGEFLKL, in test [1], the “% peptide exchange” value is 43.6%.
LMLGEFLKL [SurA2.M]: the “Peptide exchange rate, individually in buffered solution versus in the vaccine” value in test [3] (three independent repeats, Student's t-test at p<0.05) is listed as “not statistically distinguishable”. Besides, the “Upper limit of quantification of the peptide exchange assay” value in test [3] (various amounts of peptide per reaction) is “below 0.2 μg/reaction”.
Turning to ALLAVGATK, in test [1], the “% peptide exchange” value came out at 25.7%.
IMQLMPFGC: the “% peptide exchange” value in test [1] was determined as 40.9%.
Turning to SIYRYYGL [Reference Peptide], in test [4] (Reference Peptide 2 μM), the “Exchange rate, APC” value is recorded as 97.08; the “Exchange rate, BV421” value is listed as 90.56; the “Exchange rate, PE” value is given as 92.72. Also, in test [4] (Reference Peptide 20 μM), the “Exchange rate, APC” value amounted to 99.13; the “Exchange rate, BV421” value turned out to be 97.34; the “Exchange rate, PE” value turned out to be 100.
For WMHKVPASL, the “% peptide exchange” value in test [1] amounted to 87.9%.
For the substance SLPPPGTRV, the “% peptide exchange” value in test [1] is listed as 86.6%.
Same read-out and setting: with ALALEVGEL the figure was 85.1%.
Take EYILSLEEL: in test [1], the “% peptide exchange” value is 24.2%.
As for GLADQLIHL, the “% peptide exchange” value in test [1] was found to be 91.4%; in test [2], 0.86%.
For LNMADKKET, the “% peptide exchange” value in test [2] is on record as 10.32%.
Take FLSELTQQL: the “% peptide exchange” value in test [2] is on record as 23.65%.
Take CINGVCWTV: in test [1], the “% peptide exchange” value is listed as 85.3%.
With IYSTVASSL, in test [2], the “% peptide exchange” value worked out at 100.98%.
On to GLAVVTHGL, for which the “% peptide exchange” value in test [1] is 91.0%.
Take FLYDDNQRV: the “% peptide exchange” value in test [1] worked out at 91.2%.
